Literature values as cited in US6395721B1, “Low potency unpreserved sterile topical corticosteroid compositions for dermatitis” (priority 2000, dated 2002).

Tests used:
skin of human volunteers = tested on: skin of human volunteers; set-up: key to Ranking of Topical steroids for Psoriasis (potency group): I: Group 1 is the most potent; potency descends with each group to Group VII; III: potency descends with each group to Group VII; IV: potency descends with each group to Group VII; potency descends with each group to Group VII; potency descends with each group to Group VII; Group VII, which is least potent; conditions: for potency rating of steroid compositions on a scale of 1 to 7, with 7 being the least potent: rating in words, Cornell and Stoughton; for Ranking of Topical steroids for Psoriasis (potency group): no significant difference of agents within any given group; for potency of corticosteroid (in words): as worded for contemplated compositions, aldomethasone and desonide at 0.05%
stripped skin = conditions: applied to stripped skin, which develops erythema

| Molecule | potency rating of steroid compositions on a scale of 1 to 7, with 7 being the least potent (skin of human volunteers) | Ranking of Topical steroids for Psoriasis (potency group) (skin of human volunteers) | effect on erythema of stripped skin (stripped skin) | potency of corticosteroid (in words) (skin of human volunteers) |
| --- | --- | --- | --- | --- |
| C[C@]12CCC(=O)C=C1CC[C@@H]1[C@@H]2C(=O)C[C@@]2(C)[C@H]1CC[C@]2(O)C(=O)CO [cortisone] | Among the least potent steroids |  |  |  |
| flumethalone |  | VII. |  |  |
| C[C@]12CCC(=O)C=C1CC[C@@H]1[C@@H]2[C@@H](O)C[C@@]2(C)[C@H]1CC[C@]2(O)C(=O)CO [hydrocortisone] | Among the least potent steroids | VII. | develop blanching |  |
| aldomethasone |  |  |  | low potency |
| C[C@]12C=CC(=O)C=C1CC[C@@H]1[C@@H]2[C@@H](O)C[C@@]2(C)[C@H]1CC[C@]2(O)C(=O)CO [prednisolone] |  | VII. |  |  |
| CCCC(=O)O[C@]1(C(=O)CO)CC[C@H]2[C@@H]3CCC4=CC(=O)CC[C@]4(C)[C@H]3[C@@H](O)C[C@@]21C [hydrocortisone butyrate] | Among the least potent steroids |  |  |  |
| C[C@H]1C[C@H]2[C@@H]3CCC4=CC(=O)C=C[C@]4(C)[C@@]3(F)[C@@H](O)C[C@]2(C)[C@@]1(O)C(=O)CCl [Clobetasol] | among the most potent steroids |  |  |  |
| CC1(C)O[C@@H]2C[C@H]3[C@@H]4CCC5=CC(=O)C=C[C@]5(C)[C@H]4[C@@H](O)C[C@]3(C)[C@]2(C(=O)CO)O1 [desonide] | Among the least potent steroids |  |  | intermediate potency |
| aldomethasone diproprionate | Among the least potent steroids |  |  | low potency |
| CCCCC(=O)O[C@]1(C(=O)CO)CC[C@H]2[C@@H]3CCC4=CC(=O)CC[C@]4(C)[C@H]3[C@@H](O)C[C@@]21C [hydrocortisone valerate] | Among the least potent steroids |  |  |  |
